Assays:
[1] = tested on: Lolium perenne; assay: Herbicidal bioassay, Lolium perenne / rye grass (% necrosis); type: in vivo
Description: A laboratory bioassay was conducted to screen ten compounds (Fluazifop (25); Ethyl fluazifop (62); five fluazifop analogues: 27, 28, 63, 64 and 65; mesofulfuron (6); and two mesosulfuron analogues: 8 and 61. for activity against Lolium perenne, barley, peas and Chinese cabbage. Compounds were diluted in DMSO. Controls were performed using both DMSO and water.
Plants were obtained as seeds and were grown to the 2-4 true leaf stage. Plants were grown individually in seed trays. Each plant (in an approximately 3 cm diameter plug) was then detached from the tray for spraying. Environmental conditions were closely monitored and recorded and were within the optimal range of the target species.
The compounds were screened at a range of six concentrations, eg. 0.05%, 0.01%, 0.005%, 0.001%, 0.0005% and 0.0001%. Treatments will be applied directly onto the plants, using a potter tower.
One plant of each type will be sprayed using a potter tower. The 4 different types of weeds will be placed in a 10 cm diameter area underneath the potter sprayer and sprayed simultaneously. The growth of the plants and any Phytotoxicity effects will then be assessed at specified growth intervals, according to EPPO guideline PP1/135. Five replicates will be performed for each treatment, for each species.

[2] = tested on: barley; assay: Herbicidal bioassay, barley (% necrosis); type: in vivo
Procedure, shortened: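 Scoring of % necrosis followed EPPO guideline PP1/135 at specified growth intervals, five replicates per species and treatment. Plants at the 2-4 true leaf stage received Potter-tower sprays of DMSO-diluted compounds across six levels from 0.0001% to 0.05%, with water and DMSO controls.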

Q: For `CCOC(=O)C(C)Oc1ccc(Oc2ccc(C(F)(F)F)cn2)cc1` (stereo not drawn) [Fluazifop Ethyl ester (62)], which “Sum of % necrosis in Rye grass” value ([1]; Dose 0.000001, Day 0) is on record?
A: C (less than 50% necrosis)

Q: What about the “Sum of % necrosis in Rye grass” value ([1]; Dose 0.000001, Day 1) of the same molecule?
A: C (less than 50% necrosis)

Q: What about the “Sum of % necrosis in Rye grass” value ([1]; Dose 0.000001, Day 3) of the same molecule?
A: C (less than 50% necrosis)

Q: And the “Sum of % necrosis in Rye grass” value ([1]; Dose 0.000001, Day 7)?
A: C (less than 50% necrosis)

Q: What about the “Sum of % necrosis in Rye grass” value ([1]; Dose 0.000001, Day 10) of the same molecule?
A: C (less than 50% necrosis)

Q: What about the “Sum of % necrosis in Rye grass” value ([1]; Dose 0.000001, Day 14) of the same molecule?
A: C (less than 50% necrosis)

Q: And the “Sum of % necrosis in Rye grass” value ([1]; Dose 0.000001, Day 21)?
A: C (less than 50% necrosis)

Q: What about the “Sum of % necrosis in Rye grass” value ([1]; Dose 0.000005, Day 0) of the same molecule?
A: C (less than 50% necrosis)

Q: And the “Sum of % necrosis in Rye grass” value ([1]; Dose 0.000005, Day 1)?
A: C (less than 50% necrosis)

Q: What about the “Sum of % necrosis in Rye grass” value ([1]; Dose 0.000005, Day 3) of the same molecule?
A: C (less than 50% necrosis)

Q: And the “Sum of % necrosis in Rye grass” value ([1]; Dose 0.000005, Day 7)?
A: C (less than 50% necrosis)

Q: What about the “Sum of % necrosis in Rye grass” value ([1]; Dose 0.000005, Day 10) of the same molecule?
A: C (less than 50% necrosis)

Q: What about the “Sum of % necrosis in Rye grass” value ([1]; Dose 0.000005, Day 14) of the same molecule?
A: C (less than 50% necrosis)

Q: What about the “Sum of % necrosis in Rye grass” value ([1]; Dose 0.000005, Day 21) of the same molecule?
A: C (less than 50% necrosis)

Q: What about the “Sum of % necrosis in Rye grass” value ([1]; Dose 0.00001, Day 0) of the same molecule?
A: C (less than 50% necrosis)

Q: What about the “Sum of % necrosis in Rye grass” value ([1]; Dose 0.00001, Day 1) of the same molecule?
A: C (less than 50% necrosis)

Q: And the “Sum of % necrosis in Rye grass” value ([1]; Dose 0.00001, Day 3)?
A: C (less than 50% necrosis)

Q: What about the “Sum of % necrosis in Rye grass” value ([1]; Dose 0.00001, Day 7) of the same molecule?
A: C (less than 50% necrosis)

Q: What about the “Sum of % necrosis in Rye grass” value ([1]; Dose 0.00001, Day 10) of the same molecule?
A: C (less than 50% necrosis)

Q: And the “Sum of % necrosis in Rye grass” value ([1]; Dose 0.00001, Day 14)?
A: C (less than 50% necrosis)

Q: And the “Sum of % necrosis in Rye grass” value ([1]; Dose 0.00001, Day 21)?
A: C (less than 50% necrosis)

Q: What about the “Sum of % necrosis in Rye grass” value ([1]; Dose 0.00005, Day 0) of the same molecule?
A: C (less than 50% necrosis)

Q: And the “Sum of % necrosis in Rye grass” value ([1]; Dose 0.00005, Day 1)?
A: C (less than 50% necrosis)

Q: And the “Sum of % necrosis in Rye grass” value ([1]; Dose 0.00005, Day 3)?
A: C (less than 50% necrosis)

Q: What about the “Sum of % necrosis in Rye grass” value ([1]; Dose 0.00005, Day 7) of the same molecule?
A: C (less than 50% necrosis)

Q: What about the “Sum of % necrosis in Rye grass” value ([1]; Dose 0.00005, Day 10) of the same molecule?
A: C (less than 50% necrosis)

Q: What about the “Sum of % necrosis in Rye grass” value ([1]; Dose 0.00005, Day 14) of the same molecule?
A: C (less than 50% necrosis)

Q: What about the “Sum of % necrosis in Rye grass” value ([1]; Dose 0.00005, Day 21) of the same molecule?
A: B (50%-80% necrosis)

Q: And the “Sum of % necrosis in Rye grass” value ([1]; Dose 0.0001, Day 0)?
A: C (less than 50% necrosis)

Q: And the “Sum of % necrosis in Rye grass” value ([1]; Dose 0.0001, Day 1)?
A: C (less than 50% necrosis)

Q: And the “Sum of % necrosis in Rye grass” value ([1]; Dose 0.0001, Day 3)?
A: C (less than 50% necrosis)

Q: What about the “Sum of % necrosis in Rye grass” value ([1]; Dose 0.0001, Day 7) of the same molecule?
A: C (less than 50% necrosis)

Q: What about the “Sum of % necrosis in Rye grass” value ([1]; Dose 0.0001, Day 10) of the same molecule?
A: C (less than 50% necrosis)

Q: What about the “Sum of % necrosis in Rye grass” value ([1]; Dose 0.0001, Day 14) of the same molecule?
A: A (over 80% necrosis)

Q: What about the “Sum of % necrosis in Rye grass” value ([1]; Dose 0.0001, Day 21) of the same molecule?
A: A (over 80% necrosis)

Q: And the “Sum of % necrosis in Rye grass” value ([1]; Dose 0.0005, Day 0)?
A: C (less than 50% necrosis)

Q: What about the “Sum of % necrosis in Rye grass” value ([1]; Dose 0.0005, Day 1) of the same molecule?
A: C (less than 50% necrosis)

Q: And the “Sum of % necrosis in Rye grass” value ([1]; Dose 0.0005, Day 3)?
A: C (less than 50% necrosis)

Q: What about the “Sum of % necrosis in Rye grass” value ([1]; Dose 0.0005, Day 7) of the same molecule?
A: C (less than 50% necrosis)

Q: And the “Sum of % necrosis in Rye grass” value ([1]; Dose 0.0005, Day 10)?
A: C (less than 50% necrosis)

Q: And the “Sum of % necrosis in Rye grass” value ([1]; Dose 0.0005, Day 14)?
A: C (less than 50% necrosis)

Q: What about the “Sum of % necrosis in Rye grass” value ([1]; Dose 0.0005, Day 21) of the same molecule?
A: C (less than 50% necrosis)

Q: What about the “Sum of % necrosis in barley” value ([2]; Dose 0.000001, Day 0) of the same molecule?
A: C (less than 50% necrosis)

Q: And the “Sum of % necrosis in barley” value ([2]; Dose 0.000001, Day 1)?
A: C (less than 50% necrosis)

Q: And the “Sum of % necrosis in barley” value ([2]; Dose 0.000001, Day 3)?
A: C (less than 50% necrosis)

Q: What about the “Sum of % necrosis in barley” value ([2]; Dose 0.000001, Day 7) of the same molecule?
A: C (less than 50% necrosis)

Q: What about the “Sum of % necrosis in barley” value ([2]; Dose 0.000001, Day 10) of the same molecule?
A: C (less than 50% necrosis)

Q: And the “Sum of % necrosis in barley” value ([2]; Dose 0.000001, Day 14)?
A: C (less than 50% necrosis)

Q: What about the “Sum of % necrosis in barley” value ([2]; Dose 0.000001, Day 21) of the same molecule?
A: C (less than 50% necrosis)

Q: And the “Sum of % necrosis in barley” value ([2]; Dose 0.000005, Day 0)?
A: C (less than 50% necrosis)

Q: What about the “Sum of % necrosis in barley” value ([2]; Dose 0.000005, Day 1) of the same molecule?
A: C (less than 50% necrosis)

Q: What about the “Sum of % necrosis in barley” value ([2]; Dose 0.000005, Day 3) of the same molecule?
A: C (less than 50% necrosis)

Q: What about the “Sum of % necrosis in barley” value ([2]; Dose 0.000005, Day 7) of the same molecule?
A: C (less than 50% necrosis)

Q: And the “Sum of % necrosis in barley” value ([2]; Dose 0.000005, Day 10)?
A: C (less than 50% necrosis)

Q: And the “Sum of % necrosis in barley” value ([2]; Dose 0.000005, Day 14)?
A: C (less than 50% necrosis)

Q: And the “Sum of % necrosis in barley” value ([2]; Dose 0.000005, Day 21)?
A: C (less than 50% necrosis)

Q: What about the “Sum of % necrosis in barley” value ([2]; Dose 0.00001, Day 0) of the same molecule?
A: C (less than 50% necrosis)

Q: And the “Sum of % necrosis in barley” value ([2]; Dose 0.00001, Day 1)?
A: C (less than 50% necrosis)

Q: What about the “Sum of % necrosis in barley” value ([2]; Dose 0.00001, Day 3) of the same molecule?
A: C (less than 50% necrosis)

Q: And the “Sum of % necrosis in barley” value ([2]; Dose 0.00001, Day 7)?
A: C (less than 50% necrosis)

Q: And the “Sum of % necrosis in barley” value ([2]; Dose 0.00001, Day 10)?
A: C (less than 50% necrosis)

Q: And the “Sum of % necrosis in barley” value ([2]; Dose 0.00001, Day 14)?
A: C (less than 50% necrosis)

Q: And the “Sum of % necrosis in barley” value ([2]; Dose 0.00001, Day 21)?
A: B (50%-80% necrosis)

From patent publication US20150094474A1, “AGRICULTURAL CHEMICALS” (Redx Pharma Ltd., priority 2012, published 2015)
